In one series the test system is host DNA synthesis. To be noted: administration of AZT; cited from earlier work.
The subject of series [1] is HIV. The series is described as follows: Reduction of HIV cytopathic effect, MT2V (MT2 cells, free virus). The series is classed as cell-based. To be noted: Human immunodeficiency virus 1, read-out: Activity of Anti-HIV Compounds (EC50), MT2V. The procedure: The compounds of Examples were tested for anti-AIDS activity by subjecting them to standard National Cancer Institute ("NCI") in vitro screening procedures. In carrying out each test, two blanks were run. In the first blank, HIV and a culture of a standard human cell line were incubated together to measure the infectivity of the virus. The viability of the cells was measured after holding for six or seven days. In an "effective" test, most cells were infected before the holding period was complete.
In the second blank, the cell line culture and the compound being tested (but not virus) were incubated together to measure the toxicity of the drug to the cellline. The viability of the cells was measured as a function of concentration of the compound, after holding for seven days. […]
Finally, the protective effects of the test compounds were measured. Each cell culture and test compound were incubated with the virus and the viability of the cells was measured as a function of compound concentration after holding for six or seven days. […] At this point, cell viability increases steadily toward 100% unless the toxic effect of the compound (as measured in the second blank) takes effect. […] The therapeutic index TI50 is calculated as IC50/EC50.
Values of test compound concentrations required for between 20 and 50% reduction of the viral cytopathic effect can also be determined. […]
Background: Cytopathic effects are the visible damage that an infection or toxin causes in cultured cells.

On the set-up of series [2]: species or system mice. The settings on record: mouse, in vivo, iv, 10 mg/kg/day. The text has this:
Initial studies on the toxicity of the compound of Example 1 were made on mice.
for 5 days Per Day Test Toxicity

Series [3] concerns HIV. Briefly: microbe, parasite or virus in culture. The series is classed as cell-based. In outline: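 CEM (or MT2) cells infected with HIV at virus:cell ratio ~0.05 (free virus or infected cells), with […] compound dilutions from DMSO, 7 days (6 for CEM-6) at 37° C, 5% CO2. Viability by XTT formazan; EC50 = 50% reduction of viral cytopathic effect, IC50 = 50% growth inhibition of uninfected cells; CEMZ includes sub-effective AZT.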

Series [4] is described as follows: Toxicity of test compound to uninfected CEM cell line (growth inhibition). The series is classed as cell-based, human. The settings on record: human, cem cells, read-out: UNINFECTED CULTURE Response (%). The procedure: (§1) In the second blank, the cell line culture and the compound being tested (but not virus) were incubated together to measure the toxicity of the drug to the cellline. The viability of the cells was measured as a function of concentration of the compound, after holding for seven days. Typically, the cells survive at low compound concentrations, but at some higher concentration, toxicity of the compound is manifested and the cells die. The concentration of the test compound that results in 50% inhibition of cell growth is defined as the IC50.
(§2) 1) T4 lymphocytes (CEM cell line) are exposed to HIV at a virus to cell ratio of approximately 0.05 and plated along with non-infected control cells in 96-well microtiter plates.
(§3) 2) Each candidate agent is dissolved in dimethyl sulfoxide (unless otherwise indicated), then diluted 1:200 in cell culture medium. Further dilutions (five-fold) are prepared before adding to an equal volume of medium containing either infected or noninfected cells.
(§4) 3) Cultures are incubated at 37° C. in a 5% carbon dioxide atmosphere for seven days (if six days the CEMV test is identified as CEM-6).
(§5) 4) The tetrazolium salt, XTT, is added to all wells, and cultures are incubated to allow formazan color development by viable cells.
(§6) 5) Individual wells are analyzed spectrophotometrically to quantity formazan production, and in addition are viewed microscopically for detection of viable cells and confirmation of protective activity.
(§7) 6) Drug-treated virus-infected cells are compared with drug-treated non-infected cells and with other appropriate controls (untreated infected and untreated non-infected cells, drug-containing wells without cells, etc.) on the same plate.
(§8) The compound of Example 3, viz., methyl 2-chloro-5-[[(5,6-dihydro-2-methyl-1,4-oxathiin-3-yl)carbonyl]amino]benzoate, was tested against the H9/HTLV-IIIB (HIV-I) virus employing the CEM line of host cells and using free virus innoculation (denoted CEM-V). […] All concentrations are expressed in moles per liter.
(§9) The dashed line connecting the square symbols depicts the percentage of surviving uninfected cells treated with the sample relative to the same uninfected, untreated controls. This line expresses the in-vitro growth inhibitory properties of the sample and represents the second blank test.

The next series has as its system CEM cells. The series is described as above. The series is classed as cell-based, human. The settings on record: Homo sapiens, CCRF-CEM; CEM cells, uninfected, Table III; read-out: IC50 (50% inhibition of cell growth). The procedure: as §1, §2, §3, §4, §5, §6, §7, §8, §9
The subject of series [5] is HIV. Briefly: HIV antiviral activity with addition delayed after infection. The series is classed as cell-based.
The next series relates to various fungi. The settings on record: variety of crops; cited from earlier work.

This is an account of results in patent US5268389A, “Thiocarboxylate ester compounds compositions containing the same” (priority 1990, dated 1993).

The EC50 is the concentration giving half of the maximal effect. Broadly, the IC50 is the midpoint of a concentration-inhibition curve.

The structures appear in SMILES notation.

Turning to `Cc1cn([C@H]2C[C@H](N=[N+]=[N-])[C@@H](CO)O2)c(=O)[nH]c1=O` [AZT, Azidothymidine], the side effects result in the series with host DNA synthesis was “severe side effects, e.g., anemia, granulocytopenia, and thrombocytopenia”.

`CC1=C(C(=O)Nc2ccc(Cl)c(C(=O)OC(C)C)c2)SCCO1` [Compound 1, 1-Methylethyl 2-chloro-5-[[(5,6-dihydro-2-methyl-1,4-oxathiin-3-yl)carbonyl]amino]benzoate]: the EC50 in the series with HIV [1] is 2600 nM. In series [2], the “Result, Toxicity” value is reported as “No visible sign”.

As to `COC(=O)c1cc(NC(=O)C2=C(C)OCCS2)ccc1Cl` [Compound 3, Methyl 2-chloro-5-[[(5,6-dihydro-2-methyl-1,4-oxathiin-3-yl)carbonyl]amino]benzoate], the “concentration of maximum effect” value in the series with HIV [3] (CEM-V, Figure I, point 6) is listed as “about 1.7×10^-5 molar”. Besides, in the series with HIV [3] (CEM-V, Table III), the CONCLUSION entry is reported as “ACTIVE”. The viability at 172 µM with HIV [3] (Human immunodeficiency virus 1, CCRF-CEM, 1.72 × 10^-4 Molar, read-out: INFECTED CULTURE Response (%)) is 10.7%. In addition, the viability at 17.2 µM in the series on HIV [3] (Human immunodeficiency virus 1, CCRF-CEM, 1.72 × 10^-5 Molar, read-out: INFECTED CULTURE Response (%)) came out at 89.2%. Further, the viability at 0.172 µM in the series on HIV [3] (Human immunodeficiency virus 1, CCRF-CEM, 1.72 × 10^-7 Molar, read-out: INFECTED CULTURE Response (%)) came to 23.3%. The viability at 54.4 µM in the series with HIV [3] (Human immunodeficiency virus 1, CCRF-CEM, 5.44 × 10^-5 Molar, read-out: INFECTED CULTURE Response (%)) amounted to 86.1%. The viability at 5.45 µM with HIV [3] (Human immunodeficiency virus 1, CCRF-CEM, 5.45 × 10^-6 Molar, read-out: INFECTED CULTURE Response (%)) was 78.8%. In the series on HIV [3] (Human immunodeficiency virus 1, CCRF-CEM, 5.46 × 10^-7 Molar, read-out: INFECTED CULTURE Response (%)), the viability at 0.546 µM was determined as 15.7%. In addition, in the series with HIV [3] (Human immunodeficiency virus 1, CCRF-CEM, 5.47 × 10^-8 Molar, read-out: INFECTED CULTURE Response (%)), the viability at 0.0547 µM came to 15.3%. In the series on HIV [3] (Human immunodeficiency virus 1, IIIB, CEM-V, H9/HTLV-IIIB (HIV-I), Table III, read-out: EC50 (50% reduction in the viral cytopathic effect)), the EC50 was 1910 nM. In the series on HIV [3] (Human immunodeficiency virus 1, CEM-V, Figure I, point 5, read-out: concentration at which the compound began to show inhibition of the viral cytopathic effect), the minimal effective concentration was roughly 0.55 µM. Besides, the viability at 168 h, 172 µM in series [4] (1.72 × 10^-4 Molar) turned out to be 10.1%. In addition, in series [4] (1.72 × 10^-5 Molar), the viability at 168 h, 17.2 µM was determined as 95.7%. Besides, the viability at 168 h, 1.72 µM in series [4] (1.72 × 10^-6 Molar) came out at 84.6%. Also, the viability at 168 h, 0.172 µM in series [4] (1.72 × 10^-7 Molar) was 86.8%. Further, the viability at 168 h, 54.4 µM in series [4] (5.44 × 10^-5 Molar) turned out to be 97%. In series [4] (5.45 × 10^-6 Molar), the viability at 168 h, 5.45 µM worked out at 108%. Besides, the viability at 168 h, 0.546 µM in series [4] (5.46 × 10^-7 Molar) amounted to 84%. The viability at 168 h, 0.0547 µM in series [4] (5.47 × 10^-8 Molar) stood at 86.8%. In addition, the IC50 in the series on CEM cells stood at 101 µM. In addition, the “protection with delayed addition” value in the series with HIV [5] (delays of up to twenty hours) is reported as “delays of up to twenty hours will still offer some protection”. Besides, the “full HIV antiviral activity after infection” value with HIV [5] (up to eight hours after infection) is reported as “full HIV antiviral activity for up to eight hours after infection”.

Turning to `CC1=C(C(=O)Nc2ccccc2)SCCO1` [carboxin, 5,6-dihydro-2-methyl-N-phenyl-1,4-oxathiin-3-carboxamide], the “control of fungi by seed treatment” value in the series on various fungi was “providing control by seed treatment of various fungi”.
